According to patent US20020026053A1, “Novel 3-(substituted) -2- indolinones compounds and use thereof as inhibitors of protein kinase activity” (priority 1997, published 2002):

Legend:
PDGF-R = PDGF-R Assay (cellular ELISA, U1242 cells); assay type: cell-based; set-up: concentration or dose not given beside the values
In short: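 Cellular ELISA for receptor autophosphorylation: after 2 hr test-compound treatment of serum-free U1242 cells at 37°C, ligand is added for 5–10 min, cells are lysed (HNTG) and receptor captured by specific antibody. Anti-phosphotyrosine plus secondary antibody with ABTS colour read at 410/630 nm, compared with compound-free control cells.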

FLK-1 receptor = test: FLK-1 Assay (cellular/catalytic ELISA, VEGF-stimulated phosphotyrosine); assay type: cell-based; set-up: concentration or dose not given beside the values
In short: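 Receptor phosphotyrosine ELISA: Flk-1-expressing NIH3T3 C7#3 cells, starved overnight in 0.1% FBS medium, received compound (1:200 final dilution, 0.5% DMSO) for 2 h at 37 °C, then VEGF. Anti-FLK-1-captured receptor was probed with anti-phosphotyrosine UB40 and peroxidase/ABTS read-out, relative to cells without compound.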

Row | Structure (SMILES) | PDGF Kinase % Inhibition (P.119) (PDGF-R) | Flk Kinase % Inhibition (P.110) (FLK-1 receptor)
1 | N#Cc1ccccc1C=C1C(=O)Nc2ccc(S(=O)(=O)Nc3ccc(C(F)(F)F)cc3)cc21 [10735/E07] | 57.1% | 16.1%
2 | O=C1Nc2ccc(S(=O)(=O)Nc3ccc(C(F)(F)F)cc3)cc2C1=Cc1c(F)cccc1F [10735/E08] | 25.4% | 14.4%
3 | O=C1Nc2ccc(S(=O)(=O)Nc3ccc(C(F)(F)F)cc3)cc2C1=Cc1cccc2ccccc12 [10735/E09] | 37.1% | 29.6%
4 | O=C1Nc2ccc(S(=O)(=O)Nc3ccc(C(F)(F)F)cc3)cc2C1=Cc1ccc(Cl)cc1Cl [10735/E10] | 27.1% | 10.2%
5 | O=C1Nc2ccc(S(=O)(=O)Nc3ccc(C(F)(F)F)cc3)cc2C1=Cc1ccc(-c2ccccc2)cc1 [10735/E11] | 11.9% | 21.9%
6 | Cc1ccccc1C=C1C(=O)Nc2ccc(S(=O)(=O)N3CCOCC3)cc21 [10735/F02] | 6.0% | 2.1%
7 | O=C1Nc2ccc(S(=O)(=O)N3CCOCC3)cc2C1=Cc1ccc(F)c(F)c1 [10735/F03] | 7.8% | 11.0%
8 | O=C1Nc2ccc(S(=O)(=O)N3CCOCC3)cc2C1=Cc1cc(F)cc(F)c1 [10735/F04] | 40.5% | 16.4%
9 | O=C1Nc2ccc(S(=O)(=O)N3CCOCC3)cc2C1=Cc1cccc(C(F)(F)F)c1 [10735/F05] | 37.1% | 30.2%
10 | O=C1Nc2ccc(S(=O)(=O)N3CCOCC3)cc2C1=Cc1cc(C(F)(F)F)cc(C(F)(F)F)c1 [10735/F06] | 20.9% | 16.7%
11 | N#Cc1ccccc1C=C1C(=O)Nc2ccc(S(=O)(=O)N3CCOCC3)cc21 [10735/F07] | 19.2% | 34.0%
12 | O=C1Nc2ccc(S(=O)(=O)N3CCOCC3)cc2C1=Cc1c(F)cccc1F [10735/F08] | 13.3% | 10.7%
13 | O=C1Nc2ccc(S(=O)(=O)N3CCOCC3)cc2C1=Cc1cccc2ccccc12 [10735/F09] | 19.8% | 40.2%
14 | O=C1Nc2ccc(S(=O)(=O)N3CCOCC3)cc2C1=Cc1ccc(Cl)cc1Cl [10735/F10] | 13.3% | 40.0%
15 | O=C1Nc2ccc(S(=O)(=O)N3CCOCC3)cc2C1=Cc1ccc(-c2ccccc2)cc1 [10735/F11] | 4.0% | 34.6%
16 | Cc1ccccc1C=C1C(=O)Nc2ccc(CCCl)cc21 [10735/G02] | 7.1% | 5.1%
17 | O=C1Nc2ccc(CCCl)cc2C1=Cc1ccc(F)c(F)c1 [10735/G03] | 6.4% | 6.8%
18 | O=C1Nc2ccc(CCCl)cc2C1=Cc1cc(F)cc(F)c1 [10735/G04] | 11.6% | 15.6%
19 | O=C1Nc2ccc(CCCl)cc2C1=Cc1cccc(C(F)(F)F)c1 [10735/G05] | 13.6% | 8.8%
20 | O=C1Nc2ccc(CCCl)cc2C1=Cc1cc(C(F)(F)F)cc(C(F)(F)F)c1 [10735/G06] | 12.9% | 18.5%
